Earlier results as cited in patent US11331258B2, “Method for dyeing keratinous material, comprising the use of an organosilicon compound, an oligoalkylsiloxane and a dyeing compound” (Henkel AG & Co. KGaA, priority 2019, dated 2022).
Where two headings read alike, the source gives them in different places.

CCN(Cc1cccc(S(=O)(=O)[O-])c1)c1ccc(C(=C2C=CC(=[N+](CC)Cc3cccc(S(=O)(=O)[O-])c3)C=C2)c2ccccc2S(=O)(=O)[O-])cc1.[Na+].[Na+] [Acid Blue 9]
solubility in water (25° C.): more than 20 % by weight

O=S(=O)([O-])c1ccc(N=Nc2c(O)ccc3ccccc23)cc1.[Na+] [Acid Orange 7, sodium salt of 4-[(2-hydroxy-1-naphthyl)azo]benzene sulphonate]
solubility in water (25° C.): more than 7 g/L

Nc1cc(S(=O)(=O)[O-])cc2cc(S(=O)(=O)[O-])c(N=Nc3ccccc3)c(O)c12.[Na+].[Na+] [Acid Red 33, diantrium salt of 5-amino-4-hydroxy-3-(phenylazo)-naphthalene-2,7-disulphonate]
solubility in water (25° C.): about 2.5 g/L

O=C([O-])C1=NN(c2ccc(S(=O)(=O)[O-])cc2)C(=O)C1N=Nc1ccc(S(=O)(=O)[O-])cc1.[Na+].[Na+].[Na+] (stereo not shown) [Acid Yellow 23, trisodium salt of 4,5-dihydro-5-oxo-1-(4-sulfophenyl)-4-((4-sulfophenyl)azo)-1H-pyrazole-3-carboxylic acid]
solubility in water (at about 25° C.): highly soluble
